# Measured values as given in US9546176B2, “Small molecule bicyclic and tricyclic CFTR correctors” (DISCOVERYBIOMED, INC., priority 2012, dated 2017).
# Read-outs that look alike come from different tables or passages of the source.
# Legend:
# delF508-CFTR = target: T1, delF508-CFTR (Homo sapiens, UniProt P13569, DEL508-508); assay: SPQ halide-sensitive fluorescence dye assay for rescue of halide efflux (8-point concentration-response); type: cell-based; settings: for potency and efficacy compared with VX-809 in SPQ assay: versus VX-809
# T1 construct: endogenous in cells; host or cells: CFBE41o- human CF bronchial epithelial cells (delF508 homozygous)
# Summary of the method: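 CFBE41o- cells loaded with SPQ were incubated with compounds (10 μM in triplicate; 8-point concentration-response for EC50) for 48 h at room temperature. Baseline fluorescence was read in NaCl Ringer, then NaCl was replaced by NaNO3 Ringer and read over four minutes. ΔSPQ is the difference between maximum and minimum SPQ values.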
# [1] = target: T2, delF508-CFTR chloride ion channels (Homo sapiens, UniProt P13569, DEL508-508); assay: Ussing chamber short-circuit current in high-resistance CF human airway epithelial cell monolayer; type: cell-based; settings: FIG. 15
# T2 construct: delF508-CFTR chloride ion channels in a high-resistance CF human airway epithelial cell monolayer with Compound 1; endogenous in cells
# Protocol: An electrical assay was also performed to determine the functional rescue of delF508-CFTR to the apical cell membrane in a polarized epithelium using the compounds described herein. The metrics analyzed were the basal short-circuit Cl^− current, the change or delta Cl^− current stimulated by forskolin, the total stimulated Cl^− current (basal and forskolin), and the change or delta Cl^− current inhibited by GlyH101. For exemplary purposes, DMSO (100 nM) and VX-809 (100 nM equivalent) treatments were controls, and a CFCL corrector was tested (see FIG. 14).
# Only high-resistance cell monolayers (>800 to 1,000 Ohms per cm^2) were used in the experiments. Basal short-circuit current (ISC) was measured and documented. Amiloride was added to the apical side of the Ussing chamber to block any contribution of ENaC or other sodium or cation channels under basal or stimulated conditions. The effect of amiloride was negligible under these cell culture conditions. In the continued presence of amiloride (100 μM), forskolin (10 μM) was added to both sides of the monolayer to selectively open any delF508-CFTR chloride channels in the apical cell membrane. This activation step uncovered any remaining corrected delF508-CFTR chloride ion channels in the apical membrane of the polarized CF human bronchial epithelium. […]
# [2] = CFBE41o- cells, 48 h, read-out: SPQ EC50
# T1 sequence (P13569 with tags, fused parts or gaps DEL508-508): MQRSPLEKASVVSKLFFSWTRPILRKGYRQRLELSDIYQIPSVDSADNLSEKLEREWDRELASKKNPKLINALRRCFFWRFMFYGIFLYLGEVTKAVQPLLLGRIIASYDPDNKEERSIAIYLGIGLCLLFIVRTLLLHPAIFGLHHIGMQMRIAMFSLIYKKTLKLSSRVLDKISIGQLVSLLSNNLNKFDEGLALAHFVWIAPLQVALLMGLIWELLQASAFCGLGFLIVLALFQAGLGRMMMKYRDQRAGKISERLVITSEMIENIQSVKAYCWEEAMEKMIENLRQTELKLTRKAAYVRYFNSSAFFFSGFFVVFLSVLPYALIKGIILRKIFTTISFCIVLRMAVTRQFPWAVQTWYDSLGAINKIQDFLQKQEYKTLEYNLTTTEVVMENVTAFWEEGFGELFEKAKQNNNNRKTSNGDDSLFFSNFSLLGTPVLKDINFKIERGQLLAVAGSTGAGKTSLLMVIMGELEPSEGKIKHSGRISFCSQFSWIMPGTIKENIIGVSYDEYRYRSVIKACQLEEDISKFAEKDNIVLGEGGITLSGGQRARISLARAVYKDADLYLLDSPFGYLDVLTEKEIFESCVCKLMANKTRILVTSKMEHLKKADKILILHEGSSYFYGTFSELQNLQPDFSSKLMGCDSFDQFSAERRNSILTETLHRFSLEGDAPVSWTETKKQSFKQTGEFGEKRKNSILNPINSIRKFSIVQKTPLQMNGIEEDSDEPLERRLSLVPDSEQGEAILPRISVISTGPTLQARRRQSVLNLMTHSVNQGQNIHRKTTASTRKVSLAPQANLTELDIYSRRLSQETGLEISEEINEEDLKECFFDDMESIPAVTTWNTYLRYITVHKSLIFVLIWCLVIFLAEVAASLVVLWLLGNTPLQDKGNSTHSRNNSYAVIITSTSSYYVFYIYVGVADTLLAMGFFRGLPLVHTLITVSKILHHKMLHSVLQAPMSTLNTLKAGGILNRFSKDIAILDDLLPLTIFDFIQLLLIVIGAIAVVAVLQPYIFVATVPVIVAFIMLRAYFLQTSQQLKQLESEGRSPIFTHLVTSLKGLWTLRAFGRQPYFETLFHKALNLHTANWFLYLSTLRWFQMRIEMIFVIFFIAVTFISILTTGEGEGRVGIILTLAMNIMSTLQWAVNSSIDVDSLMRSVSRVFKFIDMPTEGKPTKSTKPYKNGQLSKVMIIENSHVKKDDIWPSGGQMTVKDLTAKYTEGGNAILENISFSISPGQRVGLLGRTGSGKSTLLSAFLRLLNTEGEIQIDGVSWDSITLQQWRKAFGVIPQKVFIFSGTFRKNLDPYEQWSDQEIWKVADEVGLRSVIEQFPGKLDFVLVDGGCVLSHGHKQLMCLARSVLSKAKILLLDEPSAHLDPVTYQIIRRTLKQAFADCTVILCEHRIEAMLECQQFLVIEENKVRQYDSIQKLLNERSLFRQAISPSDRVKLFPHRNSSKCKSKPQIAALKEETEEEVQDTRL
# T2 sequence (P13569 with tags, fused parts or gaps DEL508-508): as above
SMILES,"ΔSPQ (difference between maximum and minimum SPQ values) (delF508-CFTR; CFBE41o- cells, 48 h) [RFU]",EC50 (delF508-CFTR; [2]) [µM],other results
CC1(C)Cc2c(sc3c2c(=O)n(CCO)c(=O)n3Cc2ccccc2)CO1 [Compound 1],8345,–,"EC50 (delF508-CFTR): 3.5 µM; potency and efficacy compared with VX-809 in SPQ assay (delF508-CFTR): superior potency and efficacy to VX-809; potency and efficacy versus VX-809, short-circuit current [1]: superior potency and equivalent efficacy versus VX-809"
Cc1cn2c3c(=O)n(C)c(=O)n(C)c3nc2n1-c1ccccc1O [Compound A-1],–,–,"SPQ EC50 (delF508-CFTR; CFBE41o- cells, 48 h): No effect"
C=CCn1c(=O)c2c(nc3n(-c4cccc(C)c4)c(C)c(C)n23)n(C)c1=O [Compound I-15],5708,6.1,–
Cc1c(C)n2c3c(=O)n(CCCO)c(=O)n(C)c3nc2n1CCc1ccccc1 [Compound I-48],5300,3.3,–
CCCCn1c(C)cn2c3c(=O)n(CC(=O)OC)c(=O)n(C)c3nc12 [Compound I-46],5027,10.6,–
Cc1cn2c3c(=O)n(C)c(=O)n(C)c3nc2n1CCN1CCOCC1 [Compound A-10],–,–,"SPQ EC50 (delF508-CFTR; CFBE41o- cells, 48 h): No effect"
Cc1cn2c3c(=O)n(C)c(=O)n(C)c3nc2n1CCO [Compound A-7],–,–,"SPQ EC50 (delF508-CFTR; CFBE41o- cells, 48 h): No effect"
Cc1cc(C)cc(-n2c(C)cn3c4c(=O)n(CCCO)c(=O)n(C)c4nc23)c1 [Compound I-39],11432,13,–
Cn1c(=O)c2nc(N3CCNCC3)[nH]c2n(C)c1=O [Compound B-2],–,–,"SPQ EC50 (delF508-CFTR; CFBE41o- cells, 48 h): No effect"
CCCn1c(=O)c2c(nc3n(-c4ccccc4C)c(C)cn23)n(C)c1=O [Compound I-14],8875,18.9,–
CSc1nc(SCC(=O)O)c2sc3c(c2n1)COC(C)(C)C3 [Compound 2],4862,15.8,–
CCC(C)n1c(C)c(C)n2c3c(=O)n(CC(=O)OC)c(=O)n(C)c3nc12 (stereo not shown) [Compound I-49],9652,9,–

# More lines, main results first:
"ΔSPQ (difference between maximum and minimum SPQ values) (delF508-CFTR; CFBE41o- cells, 48 h) [RFU]",EC50 (delF508-CFTR; [2]) [µM],SMILES,other results
2777,4.2,CCCn1c(=O)[nH]c(=O)c2c3c(cnc21)C(=O)CC(c1cccs1)C3 (stereo not shown) [VI-2],–
8952,> 30,C=CCN1N=C(C)Cn2c1nc1c2c(=O)n(CCCC)c(=O)n1C [Compound V-6],–
7753,4,CCCn1c(=O)c2c(nc3n2C(C)C(C)=NN3CC(C)C)n(C)c1=O (stereo not shown) [Compound V-3],potency and efficacy compared with VX-809 in SPQ assay (delF508-CFTR): superior potency and efficacy to VX-809
5826,6.3,Cn1c(=O)c2c3c(cnc2n(C)c1=O)C(=O)CC(c1ccccc1)C3 (stereo not shown) [VI-3],–
